# “Also recorded” adds a separate entry of the source.
# Key:
# [1] = In vivo radiochemical stability, radio-HPLC of urine; design: species or system C57BL/6J mouse; settings: urine collected 2 hours after intravenous injection
# Procedure: (§1) Radiolabeling quality control was performed by reverse phase radio-HPLC analysis (HPLC system 2489, Waters) with a flow rate of 1 mL/min using an analytical column (JUPITER® 4 μm Proteo 90 Å, Phenomenex) with gradients of solvent A (0.16% ammonium formate in aqueous solution) and solvent B (0.16% ammonium formate in 90% acetonitrile). The HPLC gradients were programmed as follows: 10% B for 2 min, 10-70% B in 5 min, 5 min 70% B and 70-90% B in 5 min. In vitro and in vivo stability of the tracer were analyzed by radio-HPLC following in vitro incubation in mouse blood at 37° C. for up to 5 hours, and from urine collected at 2 hours after tracer injection, respectively.
# [2] = Partition coefficient between n-octanol and water or Tris buffer; format: physicochemical; settings: for logD: coligands Tricine-TPPTS
# Procedure: Matrix metalloproteinase-targeted imaging agents known in the art suffer from poor solubility of their precursors and have blood clearance times that make them ill-suited for practical application. The partition coefficient (Log D) values of ^99mTc-1 and ^99mTc-RP805 were determined based on their proportional distribution between n-octanol and water or Tris buffer at pH 7.4. […] Compared with ^99mTc-RP805 and its precursor, the increased hydrophilicity of ^99mTc-1 (and 1) can in one aspect be ascribed to the introduction of arginine residue.
# [3] = Blood kinetics and biodistribution in C57BL/6J mice; settings: mouse, in vivo; for blood pool activity: iv
# Procedure: Biodistribution at 2 h post-injection (p.i.) and blood clearance were evaluated in C57Bl/6J mice injected with 16±5 MBq of ^99mTc-1 (n=6) or ^99mTc-RP805 (n=6). In vivo targeting to aneurysm and specificity of ^99mTc-1 was evaluated in high-fat fed apolipoprotein E-deficient mice, 4 weeks after carotid aneurysm induction through peri-adventitial application of CaCl2. The animals were injected with 31±14 MBq of ^99mTc-1 with (n=3) or without (n=4) pre-injection of non-labeled 1.
# [4] = tested on: CaCl2-induced carotid aneurysm; test: Quantitative autoradiography of carotid aneurysm, blocking study; format: in vivo, apoE−/− mice; settings: autoradiography at 2 h
# Procedure: Arterial aneurysm was induced by exposing the left common carotid artery of apolipoprotein E-deficient (apoE^−/−) mice to calcium chloride. Briefly, 4- to 6-wk-old female apoE^−/− mice (n=96; Jackson Laboratory) were fed high-cholesterol chow ad libitum. After 1 wk, the carotid arteries were exposed by blunt-end dissection under anesthesia. The left common carotid artery just below the carotid bifurcation was adventitially exposed to a 10% solution of CaCl2 for 20 min. The opposite carotid artery was exposed to normal saline and served as a control for imaging studies (Razavian, et al., 2010, J Nucl Med. 51(7):1107-15).
# For autoradiography, the specimens were mounted on a board and placed in contact with to a reusable phosphor screen (MultiSensitive Phosphor Screen, PerkinElmer) along with standards of known activity. The screen was scanned in a phosphor imager system (Typhoon Trio, GE Healthcare Life Sciences) at a pixel size of 25×25 μm and images were analyzed using the Fiji software. Tracer uptake was quantified using a standard curve and expressed a % injected dose (ID)/pixel.
# The tissues were placed on a phosphor screen (MultiSensitive Phosphor Screen, PerkinElmer) along with standards of known activity. […]
# [5] = tested on: suprarenal abdominal aorta (AAA); test: microSPECT/CT imaging of AAA in angiotensin II-infused mice; format: in vivo, apoE−/− mice
# Procedure: In addition, sixteen weeks-old male apoE^−/− (n=16) were infused with human angiotensin II (Ang II, 1000 ng/kg/min, Calbiochem), delivered by a subcutaneous osmotic minipump (Model 2004, Alzet) implanted under anesthesia (isoflurane 2%).
# Animals were imaged using a dedicated high resolution small animal imaging system (X-SPECT, GammaMedica), using one mm low energy (for ^99mTc) pinhole collimators. The spatial resolution of this system for ^99mTc in tomographic images with a 1-mm pinhole collimator and 4 cm radius of rotation was 1.1 mm full-width half-maximum. Radiotracer (1 mCi for mice) was injected through an intravenous catheter. Anesthetized mice (with isoflurane) were placed in a fixed position under the camera. Three point sources of known activity (˜1 μCi) were placed in the field of view, but outside the body, to quantify tracer uptake and to verify the accuracy of image fusions. […]
# After completion of microSPECT images CT imaging was performed (energy: 75 kV/280 μA, matrix: 512×512) to identify anatomical structure. […] Images were analyzed using Xeleris Functional Imaging Workstation (General Electric, Waukesha, Wis.). […] Activities of each organ was expressed as % ID using the point sources. […]
# RNA was isolated from aortic tissue using GenElute Mammalian Total RNA Miniprep Kit (Sigma-Aldrich) and reverse-transcribed using QuantiTect Reverse Transcription Kit (Qiagen). […]
# [6] = Radiochemical stability in mouse blood by radio-HPLC; format: in vitro ADME; settings: in vitro incubation at 37° C. up to 5 hours
# Procedure: Tracers were incubated in blood (200 μL) with gentle agitation (Thermo mixer, 1000 rpm) at 37° C. for 4 h. At 0, 2, and 4 h time points, 40 μL of blood sample were collected and centrifuged at 4° C. (3000 rpm, 20 min). 10 μL of the supernatant (plasma) were collected and diluted in methanol (90 μL). The sample was then vortexed for 30 s at room temperature and centrifuged at 4° C. (3000 rpm, 15 min). 50 μL of the supernatant were concentrated, filtered and analysed by radioHPLC or LC-MS.
# as §1
# [7] = Stability in saline / radiolabeling media by RP-HPLC; format: physicochemical; settings: room temperature
# [8] = all tissues evaluated, but not the bile; 2 h
# Procedure: To investigate biodistribution in apoE^−/− mice, animals at seven weeks after peri-adventitial application of CaCl2 or NaCl to carotid arteries were injected with 31±14 MBq (14±2 pg/kg) of ^99mTc-1, with (n=5) or without (n=6) pre-injection of an excess of the parent inhibitor 19 (23±8 ng/kg). Animals were kept under anesthesia for 60 min and blood samples were collected at various times post-injection. Tissue samples and body fluids were collected and weighed at 2 hours post-injection, and measured for their radioactivity by gamma-well counting (WIZARD2®, PerkinElmer). Data were expressed as percentage of injected dose (ID) per gram of tissue or mL of blood.
# ^99mTc-1 binding to carotid aneurysm and specificity in vivo were evaluated in apoE^−/− mice at seven weeks after peri-adventitial application of CaCl2 to left carotid arteries.
# [9] = Aqueous solubility; format: physicochemical
smiles,measurement,setting,value
CC(C)C[C@H]1C(=O)N[C@H](C(=O)N[C@@H](CCCNC(=N)N)C(=O)NCCNC(=O)c2ccc(N[N]=[Tc]345([PH](c6cccc(S(=O)(=O)O)c6)(c6cccc(S(=O)(=O)O)c6)c6cccc(S(=O)(=O)O)c6)[O]CC(CO)(C[O]3)[N]4CC(=O)[O]5)nc2)Cc2ccc(cc2)OCCC[C@@H]1C(=O)NO [^99mTc-1],in vivo radiochemical stability (urine),[1],high radiochemical stability
same,logD,"[2]; n-octanol/Tris buffer, Octanol/Tris (pH = 7.4)",-4.4 ± 0.1
same,logD,"[2]; n-octanol/water, Octanol/water",-4 ± 0.1
same,logP,"[2]; n-octanol/water, read-out: Log P n-octanol/water",-4 ± 0.1
same,hepatobiliary excretion: bile activity,[3]; 2 h,1.5±0.3 % ID/g
same,tissue uptake in control aorta,[3]; 2 h,6.0±1.4 % ID/g
same,blood pool activity,[3]; 1 h,1.3±0.4 % ID/mL
same,blood pool activity,[3]; 2 h,1.0±0.4 % ID/mL
same,decrease in aneurysm-to-aorta uptake ratio under blocking conditions,[4],1.8 fold
same,decrease in carotid aneurysm tracer uptake on pre-injection of excess parent pan-MMP inhibitor,[4]; blocking vs no blocking,4.6 fold
same,left ventricle blood pool activity,[5]; AAA group,0.14±0.10 cpv/MBq
same,left ventricle blood pool activity,[5]; low remodeling group,0.12±0.08 cpv/MBq
same,radiochemical stability in mouse blood,[6],high radiochemical stability; also recorded: good stability; also recorded: single peak; also recorded: radiochemically stable
same,stability in saline,[7],good stability
same,tissue uptake by gamma well counting on pre-injection of parent pan-MMP inhibitor,[8],significantly reduced
same,water solubility (in words),[9],high water solubility
